# Data published in patent publication US20230257385A1, “SALT AND SOLID FORMS OF TABERNANTHALOG” (priority 2021, published 2023).
# Structures can show the parent of a compound that is named as a salt. Where two headings read alike, the source gives them in different places.
# Assays:
# [1] = Thermocycling of the monofumarate salt (Experiment Reference 9); type: physicochemical; settings: for XRPD (moist pellet): form (pattern) of wet pellet after thermocycling; for XRPD crystallinity (oven dried): tabernanthalog monofumarate salt thermocycled between 20° C. and peak T (75% of solvent b.p.), solvent, input and number of cycles per sample reference
# Description: The tabernanthalog monofumarate salt (Pattern #1, 75 mg, 1 wt) was weighed out in to 4 separate vials and the corresponding solvents (750 μl, 10 vol) from Table 89 were charged.
# The suspensions underwent constant amplitude thermocycling at +0.5° C./min up to 75% of the relevant solvent b.p. and −0.5° C./min down to 20° C. The thermocycle was repeated 5 times for 9-A (Experiment Reference 9-Sample Reference A) to 9-D (Experiment Reference 9-Sample Reference D) prior to working up the samples, analyzed the by XRPD (wet and dry). 9-E (Experiment Reference 9-Sample Reference E) and 9-F (Experiment Reference 9-Sample Reference F) were subjected to 10 cycles and 9-G (Experiment Reference 9-Sample Reference G) to 35 cycles.
# Thermocycling in different solvents can promote the formation of alternative polymorphic forms. The tabernanthalog monofumarate salt (Pattern #1), was heated and cooled between 20° C. and 75% of the relevant solvent b.p. at 0.5° C./minute, for 5 consecutive cycles; a 10-minute dwell was incorporated at each inflection. Thermocycling is ripening technique, that encourages particle size enlargement and promotes the evolution of the API into a stable phase. […] The products were analyzed both wet and dry to determine if form changes had occurred, all products were consistent with previously encountered patterns, and by DSC none of the products were single phase.
# [2] = Equilibrium humidity evaluation 75% RH/40° C., 10 days (Example 8, Experiment 6); type: physicochemical
# Description: The experimental procedure that accompany this experiment is provided in Section G.ii.
# All forms were maintained under constant equilibrium humidity (75% RH). XRPD, DSC, TGA, PLM and ^1H NMR analyses were performed on the absorbents at t=5 d and t=10 d, to confirm their physical fates and to determine the extent of residual solvent exchange or sequestration.
# 100 mg portions of Tabernanthalog salts ([…]) were placed in the relevant open vials. The powders were finely divided and distributed evenly over the base of the vial, such that equal material coverage across the panel was observed. These samples were then maintained 40° C. under 75% RH. The samples were sub-sampled at intervals of 5 and 10 days and analyzed by ^1H NMR, HPLC, XRPD, DSC, TGA and PLM, for evidence of phase change or chemical degradation.
# [3] = Stability examination of supplied monofumarate material at 40° C./75% RH (Example 5, Experiment Reference 2); type: physicochemical
# [4] = Dynamic vapour sorption (DVS) of selected salts (Example 8); type: physicochemical
# Description: DVS: The moisture sorption properties of the feed API were analyzed by DVS Intrinsic instrument (Surface Measurement System). Approximately 20-50 mg of API was weighed on an aluminum pan and loaded into the instrument equilibrated at 25° C. The sample was allowed to equilibrate under dry atmosphere (0% relative humidity) for 60 minutes before increasing the humidity from 0% to 30% at 5% step increment and from 30% to 90% at 10% step increment. A desorption cycle was also applied from 90% to 30% (10% step) and from 30% to 0% (5% decrement). A rate of change in mass per time unit (dm/dt) of 0.002%/min was set as the equilibrium parameter. Kinetic and isotherm graphs were calculated.
# [5] = cited from earlier work
# [6] = counter ion (acid), theoretical pKa value
molecule,measurement,setting,value
COc1ccc2c3c([nH]c2c1)CCN(C)CC3.O=C(O)/C=C/C(=O)O [Pattern 9-F],XRPD (moist pellet),[1],Pattern #2c
same,crystal form change following dry,"[1]; moist pellet vs oven dried pellet after thermocycling, ✓ / x",✓
same,XRPD crystallinity (oven dried),[1],82.3%
COc1ccc2c3c([nH]c2c1)CCN(C)CC3.O=C(O)/C=C/C(=O)O [Pattern 9-G],XRPD (moist pellet),[1],Pattern #2c
same,XRPD crystallinity (oven dried),[1],81.1%
COc1ccc2c3c([nH]c2c1)CCN(C)CC3.O=C(O)/C=C/C(=O)O [Sample 6-A1],"Tabernanthalog RRT = 1.00 (trended HPLC data, chemical purity)","[2]; Fumarate salt, t = 5 d at 75% RH at 40° C.",99.12
COc1ccc2c3c([nH]c2c1)CCN(C)CC3.O=C(O)/C=C/C(=O)O [Sample 6-A2],"Tabernanthalog RRT = 1.00 (trended HPLC data, chemical purity)","[2]; Fumarate salt, t = 10 d at 75% RH at 40° C.",98.71
COc1ccc2c3c([nH]c2c1)CCN(C)CC3.O=C(O)C(O)C(O)C(=O)O [Sample 6-B1],"Tabernanthalog RRT = 1.00 (trended HPLC data, chemical purity)","[2]; Tartrate salt, t = 5 d at 75% RH at 40° C.",98.86
COc1ccc2c3c([nH]c2c1)CCN(C)CC3.O=C(O)C(O)C(O)C(=O)O [Sample 6-B2],"Tabernanthalog RRT = 1.00 (trended HPLC data, chemical purity)","[2]; Tartrate salt, t = 10 d at 75% RH at 40° C.",98.82
COc1ccc2c3c([nH]c2c1)CCN(C)CC3.O=C(O)c1ccccc1 [Sample 6-C1],"Tabernanthalog RRT = 1.00 (trended HPLC data, chemical purity)","[2]; Benzoate salt, t = 5 d at 75% RH at 40° C.",98.36
C/C=C/C=C/C(=O)O.COc1ccc2c3c([nH]c2c1)CCN(C)CC3 [Sample 6-D1],"Tabernanthalog RRT = 1.00 (trended HPLC data, chemical purity)","[2]; Sorbate salt, t = 5 d at 75% RH at 40° C.",99.52
C/C=C/C=C/C(=O)O.COc1ccc2c3c([nH]c2c1)CCN(C)CC3 [Sample 6-D2],"Tabernanthalog RRT = 1.00 (trended HPLC data, chemical purity)","[2]; Sorbate salt, t = 10 d at 75% RH at 40° C.",99.70
COc1ccc2c3c([nH]c2c1)CCN(C)CC3.O=C(O)c1ccccc1 [Sample 16-C2],"Tabernanthalog RRT = 1.00 (trended HPLC data, chemical purity)","[2]; Benzoate salt, t = 10 d at 75% RH at 40° C.",98.17
COc1ccc2c3c([nH]c2c1)CCN(C)CC3.O=C(O)/C=C/C(=O)O [Tabernanthalog fumarate (CAT8931)],HPLC (% area),"[3]; 2-A, open-necked, wide vial at 75% RH/40° C., t = 2 w",97.26 % area
same,HPLC (% area),"[3]; 2-A, open-necked, wide vial at 75% RH/40° C., t = 3 w",97.01 % area
same,HPLC (% area),"[3]; 2-A, open-necked, wide vial at 75% RH/40° C., t = 4 w",97.98 % area
same,HPLC (% area),"[3]; 2-A, open-necked, wide vial at 75% RH/40° C., t = 5 w",97.34 % area
same,HPLC (% area),"[3]; 2-B, sealed PK0056 electrostatic bags at 75% RH/40° C., t = 2 w",97.44 % area
same,HPLC (% area),"[3]; 2-B, sealed PK0056 electrostatic bags at 75% RH/40° C., t = 3 w",97.02 % area
same,HPLC (% area),"[3]; 2-B, sealed PK0056 electrostatic bags at 75% RH/40° C., t = 4 w",98.38 % area
same,HPLC (% area),"[3]; 2-B, sealed PK0056 electrostatic bags at 75% RH/40° C., t = 5 w",97.54 % area
same,HPLC (% area),"[3]; input batch, before exposure",97.64 % area
"COc1ccc2c3c([nH]c2c1)CCN(C)CC3 [supplied material (Pattern #1), 8-methoxy-3-methyl-1H,2H,3H,4H,5H,6H-azepino[4,5-b]indole fumarate]",physical and chemical stability,"[3]; 75% RH at 40° C., open vial and double polyethene bagged, up to 5 w, XRPD, HPLC, TGA, DSC, fumarate","no evidence for hydrate formation, chemical degradation or disproportionation"
COc1ccc2c3c([nH]c2c1)CCN(C)CC3.O=C(O)C(O)C(O)C(=O)O [tabernanthalog tartrate salt],change in chemical purity (trended HPLC),"[2]; 75% RH/40° C., after 10 days",largest decrease in chemical purity
same,"water uptake / hydrate formation (TGA, DSC)","[2]; 75% RH/40° C., t=5 d and t=10 d",no significant water absorption
same,powder diffraction pattern versus input (form stability),"[2]; 75% RH/40° C., t=5 days and t=10 days",no significant changes to the powder diffraction pattern
same,"Tabernanthalog RRT = 1.00 (trended HPLC data, chemical purity)","[2]; Tartrate salt, input before humidity exposure",99.39
same,DVS sorption/desorption isotherm,"[4]; 0 to 90 to 0% RH, 25° C., dm/dt 0.002%/min",hygroscopic type of isotherm
same,"DVS 0 to 90 to 0% RH (dm/dt <0.002%), mass change","[4]; desorption, 0.0% RH",0.02%
same,"DVS 0 to 90 to 0% RH (dm/dt <0.002%), mass change","[4]; desorption, 5.0% RH",0.03%
same,"DVS 0 to 90 to 0% RH (dm/dt <0.002%), mass change","[4]; desorption, 10.0% RH",0.04%
same,"DVS 0 to 90 to 0% RH (dm/dt <0.002%), mass change","[4]; desorption, 15.0% RH",0.07%
same,"DVS 0 to 90 to 0% RH (dm/dt <0.002%), mass change","[4]; desorption, 20.0% RH",0.08%
same,"DVS 0 to 90 to 0% RH (dm/dt <0.002%), mass change","[4]; desorption, 25.0% RH",0.11%
same,"DVS 0 to 90 to 0% RH (dm/dt <0.002%), mass change","[4]; desorption, 30.0% RH",0.13%
same,"DVS 0 to 90 to 0% RH (dm/dt <0.002%), mass change","[4]; desorption, 40.0% RH",0.20%
same,"DVS 0 to 90 to 0% RH (dm/dt <0.002%), mass change","[4]; desorption, 50.0% RH",0.27%
same,"DVS 0 to 90 to 0% RH (dm/dt <0.002%), mass change","[4]; desorption, 60.0% RH",0.37%
same,"DVS 0 to 90 to 0% RH (dm/dt <0.002%), mass change","[4]; desorption, 70.0% RH",0.51%
same,"DVS 0 to 90 to 0% RH (dm/dt <0.002%), mass change","[4]; desorption, 80.0% RH",0.75%
same,"DVS 0 to 90 to 0% RH (dm/dt <0.002%), mass change","[4]; desorption, 90.0% RH",1.34%
same,"DVS 0 to 90 to 0% RH (dm/dt <0.002%), mass change","[4]; sorption, 0.0% RH",0.00%
same,"DVS 0 to 90 to 0% RH (dm/dt <0.002%), mass change","[4]; sorption, 5.0% RH",0.01%
same,"DVS 0 to 90 to 0% RH (dm/dt <0.002%), mass change","[4]; sorption, 10.0% RH",0.02%
same,"DVS 0 to 90 to 0% RH (dm/dt <0.002%), mass change","[4]; sorption, 15.0% RH",0.04%
same,"DVS 0 to 90 to 0% RH (dm/dt <0.002%), mass change","[4]; sorption, 20.0% RH",0.05%
same,"DVS 0 to 90 to 0% RH (dm/dt <0.002%), mass change","[4]; sorption, 25.0% RH",0.07%
same,"DVS 0 to 90 to 0% RH (dm/dt <0.002%), mass change","[4]; sorption, 30.0% RH",0.10%
same,"DVS 0 to 90 to 0% RH (dm/dt <0.002%), mass change","[4]; sorption, 40.0% RH",0.16%
same,"DVS 0 to 90 to 0% RH (dm/dt <0.002%), mass change","[4]; sorption, 50.0% RH",0.24%
same,"DVS 0 to 90 to 0% RH (dm/dt <0.002%), mass change","[4]; sorption, 60.0% RH",0.34%
same,"DVS 0 to 90 to 0% RH (dm/dt <0.002%), mass change","[4]; sorption, 70.0% RH",0.48%
same,"DVS 0 to 90 to 0% RH (dm/dt <0.002%), mass change","[4]; sorption, 80.0% RH",0.72%
same,"DVS 0 to 90 to 0% RH (dm/dt <0.002%), mass change","[4]; sorption, 90.0% RH",1.34%
(−)-L-Malic acid,pKa1,[5]; [6],3.5
same,pKa2,[5]; [6],5.1
same,pKa1,[5]; counter ion of the salt screen,3.50
same,pKa2,[5]; counter ion of the salt screen,5.10
